This is an account of results in article PMC10653770 (Journal of Enzyme Inhibition and Medicinal Chemistry, 2023).

Molecules are shown by their SMILES. A value given as a limit tells only on which side of the number the result lay.

For data set [1], the system named is SH − SY5Y cells. The class given is cell-based, human. Conditions: 1 μM compound; Aβ1 − 42 20 μM, 48 h.
Data set [2] deals with SH − SY5Y cells. Conditions: for toxicity towards SHSY5Y cells: within the tested concentration range.
Data set [3] concerns the target hAChE (Homo sapiens, UniProt P22303). The experiment in a line: Kinetic profiling of AChE inhibition. The class given is biochemical. Conditions: Lineweaver–Burk plot.
Data set [4] has as its target AChE − induced Aβ1 − 42 aggregation (Homo sapiens, UniProt P22303). The class given is biochemical. Conditions: co-incubation with Aβ1-42 and AChE for 24h; 0.1 μM and 1 μM compound.
Data set [5] in a line: in vitro. Conditions: human.

Broadly, the viability is a per cent measure of how many cells are alive, often set against a control. Lower therefore signals a greater loss of cells.

AChE − induced Aβ1 − 42 aggregation, sequence (P22303 32-614): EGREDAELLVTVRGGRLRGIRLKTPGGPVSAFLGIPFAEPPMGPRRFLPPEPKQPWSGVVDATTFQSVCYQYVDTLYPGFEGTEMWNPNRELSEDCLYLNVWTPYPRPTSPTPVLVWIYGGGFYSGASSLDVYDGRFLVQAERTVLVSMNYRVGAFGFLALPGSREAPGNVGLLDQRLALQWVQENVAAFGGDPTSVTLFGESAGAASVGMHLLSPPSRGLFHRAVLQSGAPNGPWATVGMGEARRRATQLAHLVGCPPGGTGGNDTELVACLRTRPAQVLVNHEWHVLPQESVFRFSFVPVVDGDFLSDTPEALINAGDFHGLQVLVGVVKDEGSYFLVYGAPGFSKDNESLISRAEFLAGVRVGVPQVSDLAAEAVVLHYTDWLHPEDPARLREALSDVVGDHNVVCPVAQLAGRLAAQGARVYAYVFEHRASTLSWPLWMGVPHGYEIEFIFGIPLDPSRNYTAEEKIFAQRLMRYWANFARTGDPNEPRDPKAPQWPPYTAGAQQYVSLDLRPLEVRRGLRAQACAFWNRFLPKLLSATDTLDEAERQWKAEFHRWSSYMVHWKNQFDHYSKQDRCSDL
hAChE, sequence (P22303 32-614): as above

In the case of `C=CCn1c2cc(OC(=O)CCCCN3CCN(Cc4ccccc4)CC3)ccc2c2ccnc(C)c21` [Compound 13, 9-allyl-1-methyl-9H-pyrido[3,4-b]indol-7-yl 5–(4-benzylpiperazin-1-yl)pentanoate], the “cellular recovery against Aβ1 − 42−induced damage” value in data set [1] was “exceptional cellular recovery”. For the same molecule, in data set [2] (0.1 to 1 μM, 48h incubation), the “cytotoxicity in SHSY5Y cells” value was “negligible cytotoxicity”. In addition, in data set [2], the “toxicity towards SHSY5Y cells” value is “weak toxicity”. In data set [3], the “type of AChE inhibition” value is given as “mixed − type inhibition”. Also, in data set [4], the “AChE − induced Aβ1 − 42 aggregation” value is on record as “significant reduction in Aβ1 − 42 aggregation”. For the same molecule, in data set [5], the viability at 10 µM was over 79%.
Take `C=CCn1c2cc(OC(=O)CCCCN3CCN(Cc4ccc(F)cc4)CC3)ccc2c2ccnc(C)c21` [Compound 17d, 9-allyl-1-methyl-9H-pyrido[3,4-b]indol-7-yl 5–(4-(4-fluorobenzyl)piperazin-1-yl)pentanoate]: the “toxicity towards SHSY5Y cells” value in data set [2] is reported as “weak toxicity”. For the same molecule, the “AChE − induced Aβ1 − 42 aggregation” value in data set [4] is recorded as “significant reduction in Aβ1 − 42 aggregation”. In data set [5], the viability at 10 µM is over 79%.
